From US20070149525A1, “Methods of treating amyloidosis using aryl-cyclopropyl derivative aspartyl protease inhibitors” (priority 2005, published 2007)
“And” between values parts separate entries of the source, which are not always exact repeats. Equal values may be shown once.

Tests used:
[1] = system: beta-secretase (BACE) versus cathepsin D (catD); assay: CatD/BACE selectivity (ratio of IC50 values); type: biochemical; conditions: each value average of four experimental runs; multiple values = more than one experiment
Experimental: Investigation of potential beta-secretase inhibitors produced compounds with increased selectivity for beta-secretase over other aspartyl proteases such as cathepsin D (catD), cathepsin E (catE), Human Immunodeficiency Viral (HIV) protease, and renin. Selectivity was calculated as a ratio of inhibition (IC50) values in which the inhibition of beta-secretase was compared to the inhibition of other aspartyl proteases.
The compounds of formula (I) can be selective for beta-secretase versus catD.
In the following examples, each value is an average of four experimental runs and multiple values for one compound indicate that more than one experiment was conducted.

[2] = system: Madin-Darby Canine Kidney (MDCK) cells; assay: In vitro permeability across MDCK cell monolayer; type: in vitro ADME; conditions: test compound 5 μM, 2 h at 37° C., apical to basolateral
Experimental: (§1) Compounds were evaluated for permeability across a monolayer of Madin-Darby Canine Kidney (MDCK) cells in a transwell device following culturing for 4 days. […] A 0.5 mL of cell suspension (400,000 cells/mL) was placed on membrane and a 1.5 mL media in the bottom wells on day 1. On day 2 and day 3, cells were fed with new media. […] Media was removed from upper chambers and filled with mHBSS with or without CspA, and incubated 30 min at 37° C. with light shaking. Donor chambers were emptied, and filled with test compound at 5 μM in mHBSS. […] Plates were incubated for 2 h at 37° C. with shaking. After 2 h, both the donor and receiver wells were sampled. The bottom chambers were read in a fluorometer to assess LY leakage, and then the media from all wells were assayed by LC/MS/MS to determine compound levels.

[3] = In vitro permeability across MDCK cell monolayer; type: in vitro ADME, Canine; conditions: dog, MDCK, test compound 5 μM, 2 h at 37° C., apical to basolateral, read-out: Permeability Forward A > B
Experimental: as §1

[4] = Brain to plasma ratio in female FVB mice; type: in vivo; conditions: 100 mpk dose
[5] = system: P-gp; conditions: mdr1 a/b (-/-) and FVB wild-type, mouse, not told, iv, 2.5 mg/kg, 5 min
Experimental: Use of mdr1 (−/−) mouse and its FVB wild-type littermates, which expresses P-gp at their blood-brain barrier (BBB), can distinguish between a test compound of high P-gp liability from one with a more desirable low P-gp liability.
Test compounds are administered to both the mdr1 a/b (−/−) and the FVB wild-type mice (N=4/strain) intravenously at 2.5 mg/Kg through the tail vein. Plasma and brains are harvested at 5 min post administration. Test compound is extracted from tissue in parallel with calibration curves prepared from age-matched control tissues, then quantitated by LC/MS/MS. The ratio of brain concentration (Cb) to plasma concentration (Cp) is used as a measure of brain penetration according to the following formula: Brain Penetration (P)=Cb/Cp Therefore, a measure of brain penetration in the mdr1 (−/−) mouse relative to that of the wild-type animal represents an assessment of in vivo P-gp efflux, which is analogous to that determine in vitro with MDR1-MDCK cells. Calculations are made according to the following formula: Pmdr1/PFVB=In vivo Efflux

| Structure (SMILES) | Selectivity IC50 catD/IC50 BACE [1] | Permeability Forward A > B [2] | further results |
| --- | --- | --- | --- |
| O=C(Cc1nnn[nH]1)NC(Cc1cc(F)cc(F)c1)C(O)CNC1(c2cccc(-n3cccn3)c2)CC1 (centres unmarked) [Example 23.8, N-(4-(1-(3-(1H-pyrazol-1-yl)phenyl)cyclopropylamino)-1-(3,5-difluorophenyl)-3-hydroxybutan-2-yl)-2-(1H-tetrazol-5-yl)acetamide] | 3.3 |  |  |
| CC(=O)NC(Cc1cc(F)cc(F)c1)C(O)CNC1(c2csc(C(C)(C)C)c2)CC1 (centres unmarked) [Example 23.6, N-(4-(1-(5-tert-butylthiophen-3-yl)cyclopropylamino)-1-(3,5-difluorophenyl)-3-hydroxybutan-2-yl)acetamide] | 1.6 and 0.9 |  |  |
| CC(=O)NC(Cc1cc(F)cc(F)c1)C(O)CNC1(c2cccc(-n3cccn3)c2)CC1 (centres unmarked) [Example 23.12, N-(4-(1-(3-(1H-pyrazol-1-yl)phenyl)cyclopropylamino)-1-(3,5-difluorophenyl)-3-hydroxybutan-2-yl)acetamide] |  | 16.29 ×10⁻⁶ cm/s |  |
| CC(=O)NC(Cc1cc(F)cc(F)c1)C(O)CNC1(c2ccn(CC(C)(C)C)n2)CC1 (centres unmarked) [Example 23.4, N-(1-(3,5-difluorophenyl)-3-hydroxy-4-(1-(1-neopentyl-1H-pyrazol-3-yl)cyclopropylamino)butan-2-yl)acetamide] | 3.5 |  |  |
| CC(=O)NC(Cc1cc(F)cc(F)c1)C(O)CNC1(c2cccc(C(C)(C)C(F)F)c2)CC1 (centres unmarked) [23.57] |  |  | Brain AUC (0-6 h) [4]: 57 µM·h; Kp ([4]; mouse, brain and plasma, 100 mg/kg, AUC (0-6 h)): 0.7; AUC(0-t) ([4]; mouse, plasma, 100 mg/kg, read-out: Plasma AUC (0-6 h)): 86 µM·h |
| CNCC[C@@H](Oc1ccccc1C)c1ccccc1 [atomoxetine] |  |  | in vivo P-gp efflux (Pmdr1/PFVB) [5]: 1.17 |
| CC(=O)NC(Cc1cc(F)cc(F)c1)C(O)CNC1(c2cnn(C(C)(C)C)c2)CC1 (centres unmarked) [Example 23.5, N-(4-(1-(1-tert-butyl-1H-pyrazol-4-yl)cyclopropylamino)-1-(3,5-difluorophenyl)-3-hydroxybutan-2-yl)acetamide] | 6.0 |  |  |
| CC(=O)NC(Cc1cc(F)cc(F)c1)C(O)CNC1(c2cccc(-n3cccn3)c2)CC1 (centres unmarked) [Example 23.18, N-(4-(1-(3-(1H-pyrazol-1-yl)phenyl)cyclopropylamino)-1-(3,5-difluorophenyl)-3-hydroxybutan-2-yl)acetamide] |  | 8.78 ×10⁻⁶ cm/s |  |
| CC(=O)NC(Cc1cc(F)cc(F)c1)C(O)CNC1(c2cc(O)cc(CC(C)(C)C)c2)CC1 (centres unmarked) [Example 23.3, N-(1-(3,5-difluorophenyl)-3-hydroxy-4-(1-(3-hydroxy-5-neopentylphenyl)cyclopropylamino)butan-2-yl)acetamide] | 1.5 |  |  |
| CC(=O)NC(Cc1cc(F)cc(F)c1)C(O)CNC1(c2cccc(-n3cccn3)c2)CC1C(C)C (centres unmarked) [Example 23.54, N-(4-(1-(3-(1H-pyrazol-1-yl)phenyl)-2-isopropylcyclopropylamino)-1-(3,5-difluorophenyl)-3-hydroxybutan-2-yl)acetamide] |  | 14.8 ×10⁻⁶ cm/s | Papp A→B at 2 h, 5 μM [3]: 11.4 ×10⁻⁶ cm/s |
| CCC1CC1(NCC(O)C(Cc1cc(F)cc(F)c1)NC(C)=O)c1cccc(-n2cccn2)c1 (centres unmarked) [Example 23.55, N-(4-(1-(3-(1H-pyrazol-1-yl)phenyl)-2-ethylcyclopropylamino)-1-(3,5-difluorophenyl)-3-hydroxybutan-2-yl)acetamide] |  | 14.1 ×10⁻⁶ cm/s and 9.2 ×10⁻⁶ cm/s | Papp A→B at 2 h, 5 μM [3]: 18.4 ×10⁻⁶ cm/s |
| O=C(O)CCCC(=O)NC(Cc1cc(F)cc(F)c1)C(O)CNC1(c2cccc(-n3cccn3)c2)CC1 (centres unmarked) [Example 23.9, 4-(4-(1-(3-(1H-pyrazol-1-yl)phenyl)cyclopropylamino)-1-(3,5-difluorophenyl)-3-hydroxybutan-2-ylcarbamoyl)butanoic acid] | 2.6 |  |  |

Second part, led by results:

| Selectivity IC50 catD/IC50 BACE [1] | Permeability Forward A > B [2] | Structure (SMILES) | further results |
| --- | --- | --- | --- |
| 3.4 |  | CC(=O)NC(Cc1cc(F)cc(F)c1)C(O)CNC1(c2cccc(C3CC4CCC3C4)c2)CC1 (centres unmarked) [Example 23.1, N-(4-(1-(3-(bicyclo[2.2.1]heptan-2-yl)phenyl)cyclopropylamino)-1-(3,5-difluorophenyl)-3-hydroxybutan-2-yl)acetamide] |  |
| 13.0 |  | CC(=O)NC(Cc1cc(F)cc(F)c1)C(O)CNC1(c2cccc(C3CCCC3)c2)CC1 (centres unmarked) [Example 23.2, N-(4-(1-(3-cyclopentylphenyl)cyclopropylamino)-1-(3,5-difluorophenyl)-3-hydroxybutan-2-yl)acetamide] |  |
|  | 19.62 ×10⁻⁶ cm/s | CC(=O)NC(Cc1cc(F)cc(F)c1)C(O)CNC1(c2cccc(C(C)C(F)(F)F)c2)CC1 (centres unmarked) [Example 23.28, N-(1-(3,5-difluorophenyl)-3-hydroxy-4-(1-(3-(1,1,1-trifluoropropan-2-yl)phenyl)cyclopropylamino)butan-2-yl)acetamide] | Papp A→B at 2 h, 5 μM [3]: 12.6 ×10⁻⁶ cm/s |
| 1.7 |  | CC(=O)NC(Cc1cc(F)cc(F)c1)C(O)CNC1(c2cccc(C(C)C(F)(F)F)c2)CC1 (centres unmarked) [Example 23.7, N-(1-(3,5-difluorophenyl)-3-hydroxy-4-(1-(3-(1,1,1-trifluoropropan-2-yl)phenyl)cyclopropylamino)butan-2-yl)acetamide] |  |
|  | 12.21 ×10⁻⁶ cm/s and 18.32 ×10⁻⁶ cm/s | CC(=O)NC(Cc1cc(F)cc(F)c1)C(O)CNC1(c2cccc(-n3cccn3)c2)CC1 (centres unmarked) [Example 23.11, N-(4-(1-(3-(1H-pyrazol-1-yl)phenyl)cyclopropylamino)-1-(3,5-difluorophenyl)-3-hydroxybutan-2-yl)acetamide] |  |
|  | 16.35 ×10⁻⁶ cm/s | CC(=O)NC(Cc1cc(F)cc(F)c1)C(O)CNC1(c2cccc(-n3cccn3)c2)CC1 (centres unmarked) [Example 23.27, N-(4-(1-(3-(1H-pyrazol-1-yl)phenyl)cyclopropylamino)-1-(3,5-difluorophenyl)-3-hydroxybutan-2-yl)acetamide] |  |
